According to US8883862B2, “Method for controlled release of parathyroid hormone from cross-linked hyaluronic acid hydrogel” (Kaohsiung Medical University, priority 2012, dated 2014):
Read-outs that look alike come from different tables or passages of the source.

Tests used:
[1] = Stability of PTH(1-34) under UV exposure (ELISA); type: physicochemical; conditions: 10 minutes of UV exposure
Procedure: The hydrogel was fabricated by the photo-cross linking method. Briefly, 20 mg of methacrylated-hyaluronic acid (MeHA) was dissolved in 650 μL of stock solution (0.9% NaCl/4 mM HCl/0.1% BSA solution) and 100 μL of 0.07% (w/v) 12959 (Ciba specialty chemicals, Taiwan) was added to the solution. After complete dissolution, 250 μL of PTH(1-34) stock solution (10^−5 M) was added to the polymer solution and mixed completely. The mixture was transferred into glass syringe and exposed under UV light for 10 minutes. The resulting PTH/CLMH gel was washed with distilled water and then lyophilized. The morphology of the gel was examined using scanning electron microscopy (SEM) after gold coating of the samples on a stub.
The encapsulation and release kinetics are as follows: 200 μL of PTH(1-34)-loaded CLMH hydrogel (PTH/CLMH gel) suspended in 1 mL of 0.9% NaCl was crushed completely and collected the supernatant. Concentration of PTH(1-34) on the supernatant was measured using a commercially available PTH(1-34) ELISA kit following the manufacturer's instructions.

[2] = test system: MC3T3-E1 (osteoblastic cells); assay: Bioactivity of released PTH(1-34): cAMP contents in cells; type: cell-based; conditions: PTH(1-34) released from PTH/CLMH hydrogel at 2, 3, 4, 9, 10 and 11 days; 20 mins incubation
Procedure: The activity of controlled released PTH(1-34) was determined by measuring cAMP contents in cells treated with released PTH(1-34). For these examples, the MC3T3-E1 (osteoblastic cells) was cultured in phenol red-free α-MEM supplemented with 10% fetal bovine serum and […] ascorbic acid. The Cells were seeded into 24-well plates at a density of 50,000 cells/well. 0.25 mM isobutylmethylxanthine was used to inhibit cAMP degradation and incubated with released PTH(1-34) for 20 mins. The cells were lysed directly in the medium by adding 0.1N HCl. Intracellular cAMP was measured using a commercially available immunoassay kit (cayman) following the manufacturer's instructions.
Statistical analysis: Three independent cultures for biochemical analysis were tested. Each example was repeated at least three times, and data (expressed as mean±SEM) from a representative example are shown. Statistical significance was evaluated by one-way analysis of variance (ANOVA), and multiple comparisons were performed by Student's t-test. A p<0.05 was considered significant.

[3] = test system: papain-induced OA; assay: Papain-induced OA in rat knees, histology of articular cartilage (GAG, type II collagen); type: in vivo, Rats; conditions: OA group; intra-articular; PTH(1-34) 10 nM every 3 days, hydrogels every 10 days
Procedure: Rats were divided into the following 2 groups: OA group (OA induction with or without PTH(1-34) treatment) (n=5), non-OA group (n=5) injected with vehicle without PTH(1-34) treatment and OA induction. The right knees were the study joints. OA was induced in the right knees of rats in the OA groups with intra-articular injections of 20 ul of 4% papain solution and 20 ul of 0.03M cysteine. The injections were given with a 23-gauge needle via the patellar tendon on days 1, 4, and 7 of the example. In the OA group, after OA induction, the right knees were injected intra-articularly with 40 ul of 10 nM PTH(1-34) every 3 days or PTH/CLMH or CLMH every 10 days until rats were sacrificed. In the non-OA group, the same treatments were performed but without OA induction. Rats from each group were sacrificed by CO2 inhalation. Histologic analysis: After rats were sacrificed, the knees were harvested, and the tibia plateaus with articular cartilage were collected and fixed with 10% neutral buffered formalin prior to histologic preparation. The samples were then decalcified in 0.05M EDTA. The decalcified tibia articular samples were paraffin embedded, and […] microsections in the coronary plane were prepared. GAG was stained with Safranin O-fast green (1% Safranin 0 counterstained with 0.75% hematoxylin and then 1% fast green; Sigma) (dark color). […]

[4] = pulmonary route, cited from earlier work

CC[C@H](C)[C@H](NC(=O)[C@H](CCC(=O)O)NC(=O)[C@H](CO)NC(=O)[C@@H](NC(=O)[C@@H](N)CO)C(C)C)C(=O)N[C@@H](CCC(N)=O)C(=O)N[C@@H](CC(C)C)C(=O)N[C@@H](CCSC)C(=O)N[C@@H](Cc1cnc[nH]1)C(=O)N[C@@H](CC(N)=O)C(=O)N[C@@H](CC(C)C)C(=O)NCC(=O)N[C@@H](CCCCN)C(=O)N[C@@H](Cc1cnc[nH]1)C(=O)N[C@@H](CC(C)C)C(=O)N[C@@H](CC(N)=O)C(=O)N[C@@H](CO)C(=O)N[C@@H](CCSC)C(=O)N[C@@H](CCC(=O)O)C(=O)N[C@@H](CCCN=C(N)N)C(=O)N[C@H](C(=O)N[C@@H](CCC(=O)O)C(=O)N[C@@H](Cc1c[nH]c2ccccc12)C(=O)N[C@@H](CC(C)C)C(=O)N[C@@H](CCCN=C(N)N)C(=O)N[C@@H](CCCCN)C(=O)N[C@@H](CCCCN)C(=O)N[C@@H](CC(C)C)C(=O)N[C@@H](CCC(N)=O)C(=O)N[C@@H](CC(=O)O)C(=O)N[C@H](C(=O)N[C@@H](Cc1cnc[nH]1)C(=O)N[C@@H](CC(N)=O)C(=O)N[C@@H](Cc1ccccc1)C(=O)O)C(C)C)C(C)C [PTH(1-34), teriparatide]
stability of PTH(1-34) under UV exposure [1]: no significant adverse effect | expression of cAMP [2]: increased expression of cAMP | level of GAG in OA articular cartilage [3]: could reverse papain-induced OA changes by increasing GAG level | bioavailability ([4]; inhalation of dry powders): 34% | bioavailability ([4]; intratracheal instillation): 40%
